One experiment relates to iNKT cell clone. Nature of the experiment: Cytokine release from iNKT cell clone stimulated with analog-pulsed C1R-human CD1d cells. Format: cell-based. The conditions noted are these: 24 h, titration. Here is the method:
FIG. 9 Inositol-based α-GalCer derivatives are functional in vitro. Human monocyte-derived DC were pulsed with 150 ng of different inositol analogs and co-cultured with iNKT cells for 24 h. […] Numbers indicate the mean fluorescence intensity of the histogram gated on CD11c^+ cells. 6-Deoxy and 6-Sulfono-myo-inositolceramide induce significant (B) IL-12p40 and (C) IFN-γ production by DC and iNKT cells respectively in the supernatants of co-cultured DC and iNKT cells. […] Release of (D) IFN-g and (E) IL-4 from iNKT cells after 24 h in culture with C1R-human CD1d cells pulsed with α-GalCer, 6-Deoxy- or 6-Sulfono-myo-inositolceramide.
The three inositol compounds were titrated on C1R cells expressing human CD1d and used to stimulate an iNKT cell clone.

The test system of another experiment is human DC. Nature of the experiment: DC maturation in co-culture of human DC and iNKT cells (flow cytometry CD83, CD86, CD38). The experiment is classed as cell-based. The conditions noted are these: data not shown. On the procedure:
Different analogs of α-GalCer as indicated or LPS were added to co-cultures of human DC and iNKT cells. (A) Maturation of the DC was assessed after 40 h, gating on CD11c positive cells. Histograms indicate the CD83 and CD86 profiles of DC from different treatments; the percentages indicate the percentage of CD83hi mature DC and the numbers in parenthesis, the mean fluorescence intensity of the population contained within the labeled gate. DC and iNKT cells were co-cultured in the presence of different analogs of α-GalCer for 24 hours. Supernatants were analyzed using ELISA for the presence of (B) IL-12p40 released by the DC and (C) IFN-γ from the iNKT cells. […] Cells were co-cultured in the presence of the indicated concentration of analog and the percentages of DC with increased CD83/CD80 are shown. […] Viability of α-GalCer or analog-pulsed DC was assessed after 40 h co-culture in the presence of iNKT cells by flow cytometry. Cells were stained with propidium iodide and the percentage of live CD11c gated cells remaining in the culture are shown.
Human monocyte-derived DC were pulsed with 150 ng of different inositol analogs and co-cultured with iNKT cells for 24 h. […] Numbers indicate the mean fluorescence intensity of the histogram gated on CD11c^+ cells.
Immature human DC were cultured in the presence of a human iNKT cell clone with or without analogs or vehicle at different concentrations.
To compare the functions of high affinity α-GalCer, intermediate affinity threitolceramide with the known, low affinity analog OCH, the three compounds were titrated onto DC and used to present to iNKT cells. Maturation of DC and DC viability were examined after 48 h.

In experiment [1] the target is T1, human invariant Vα24^+/Vβ11^+ TCR binding to hCD1d-lipid complex (Homo sapiens, UniProt P15813).
T1 construct: soluble human CD1d molecules; made in house
Nature of the experiment: Surface plasmon resonance (Biacore) of soluble iNKT TCR binding to hCD1d monomers loaded with analogs. The conditions noted are these: for Kd: equilibrium binding, read-out: Kd of the TCR binding to the monomer; for koff: kinetic measurement, read-out: rate of dissociation (Koff) between the TCR and the monomer. On the procedure: Affinity and kinetics of iNKT TCR binding to hCD1d complexed with α-GalCer or OCH. Increasing concentrations from 0.4 μM to 194 μM (two-fold dilution) of iNKT TCR were injected for 5 seconds over the indicated hCD1d-GSL complexes. The binding responses of 5 concentrations are shown superimposed. The panels on the right show binding response at equilibrium.
The affinities of a soluble NKT cell TCR for human CD1d molecules refolded with different analogs of α-GalCer were measured. Equilibrium binding and kinetic measurements respectively were made for α-GalCer (A and B), threitolceramide (C and D), 4S-threitolceramide (E and F), 4R-threitolceramide (G and H). The Kd values (μM) were calculated from equilibrium binding. The Kon values shown were calculated from Koff and Kd.
We then assessed whether the length of the acyl and sphingosine chains could affect the affinity of iNKT TCR binding to glycolipid-CD1d complex. We refolded Vα24 and Vβ11 chains of the iNKT TCR as previously described (Gadola, Koch et al, J Exp Med, 2006, 203; 699-710) and used the purified and refolded iNKT TCR in surface plasmon resonance studies against immobilized biotinylated CD1d monomers loaded with either α-GalCer or OCH.
To characterize the affinity of analogs of α-GalCer, biotinylated hCD1d monomers were generated using previously described protocols (Karadimitris, Gadola et al, Proc Natl Acad Sci USA, 2001, 98; 3294-8) bound to the different analogs. Surface plasmon resonance (Biacore) analysis was performed using a soluble disulphide-linked human invariant Vα24^+/Vβ11^+ TCR (Gadola, Koch et al, J Exp Med, 2006, 203; 699-710) to measure the equilibrium dissociation constants (Kd) of binding of the TCR to different monomers (FIG. 3).
In general terms: In SPR one partner is held on a chip, and binding of the other changes the refractive index at the surface.

On to “D-myo-Inositol Ceramide Salt [Compound 13]”, for which, in the experiment on iNKT cell clone, the “IFN-γ release from iNKT cells” value is given as “little or no IFN-γ release” and the “IL-4 release from iNKT cells” value is on record as “detectable IL-4 was produced when higher concentrations of the compound were used”.
On to Inositol Ceramide [Compound 10], for which, in the experiment on iNKT cell clone, the “IFN-γ release from iNKT cells” value is “little or no IFN-γ and IL-4”; the “IL-4 release from iNKT cells” value is “little or no IFN-γ and IL-4”. Moreover, the “DC maturation and cytokine production from iNKT cells (first test)” value in the experiment on human DC was “induced detectable DC maturation and cytokine production from iNKT cells”.
With D-myo-Inositol Ceramide [Compound 12], in the experiment with iNKT cell clone, the “IFN-γ release from iNKT cells” value is on record as “significant levels of both cytokines” and the “IL-4 release from iNKT cells” value is “significant levels of both cytokines”.
Broadly, the Kd is the equilibrium constant for the complex coming apart. One may read the koff as the rate constant with which the complex falls apart. `CCCCCCCCCCCCCCCCCCCCCCCCCC(=O)N[C@@H](COC[C@H](O)[C@@H](O)[C@@H](O)c1ccccc1)[C@H](O)[C@H](O)CCCCCCCCCCCCCC` [Compound 14, 4-(S)-Phenyl Threitol Ceramide]: in experiment [1], the Kd was determined as 3.84 µM and the koff was 0.65 s⁻¹.
For `CCCCCCCCCCCCCCCCCCCCCCCCCC(=O)N[C@@H](COC[C@H](O)[C@@H](O)[C@H](O)c1ccccc1)[C@H](O)[C@H](O)CCCCCCCCCCCCCC` [Compound 15, 4-(R)-Phenyl Threitol Ceramide], in that order: 4.25 µM and 0.506 s⁻¹.

For the origin of these results see patent US8039670B2, “Analogs of alpha galactosyceramide and uses thereof” (Ludwig Institute for Cancer Research, priority 2005, dated 2011).
